Measured values from patent US11917993B2, “Antimicrobial compositions” (LANXESS Corporation, priority 2017, dated 2024).

Legend:
Format in all cases: cell-based
[1] = system: K. aerogenes (ATCC 13048) and P. aeruginosa (ATCC 9027); assay: Challenge testing in tryptic soy broth at pH 9, time points from ASTM 2574; conditions: pH 9, tryptic soy broth, up to one week
Text: EP testing evaluates results at the 2-day, 7-day, 14-day, and 28-day marks. […] Strains of K. aerogenes (ATCC 13048) and P. aeruginosa (ATCC 9027) were utilized for this testing as they are commonly found in many products, including without limitation cosmetics and coatings. These organisms were challenged in the soy broth using the same methods described in the Challenge Testing Methodology section. The time points were selected from ASTM 2574, which is a method for evaluating antimicrobial efficacy in waterborne emulsion based paints.

[2] = system: A. brasiliensis, C. albicans, E. coli, P. aeruginosa, S. aureus; assay: Microbe challenge testing (USP 51 / EP) in model skin lotion of Table 1
Text: (§1) One skilled in the art would be able to determine and utilize other industry testing methods useful to evaluate the efficacy of the present inventive compositions.
(§2) EP testing evaluates results at the 2-day, 7-day, 14-day, and 28-day marks.
(§3) For the European Pharmacopeia, a “pass” test for efficacy is a two-log reduction for bacteria after two days, three-log reduction for bacteria after […], two-log reduction for mold and yeast at 14 days and no increase at 28 days.
Skin Lotion Formulation Experimental—An exemplary, model skin lotion having a pH of 6.5 as set forth below in Table 1 was prepared for testing. The invention is not limited to use in this specific lotion but was used to illustrate the advantages of the invention.
Use of 3-phenyl propanol in the skin lotion formulation as set forth in Table 1 above was evaluated according to methods described in the Challenge Testing Methodology section above. In this efficacy screen study reflected in FIGS. 18 and 19, only the time intervals at 2-day and 14-day were measured, as these are critical time points for USP-51 and European Pharmacopeia. In this example, a triblend or tri-component antimicrobial composition was used comprising 3-phenyl propanol added to the model skin lotion containing both sodium benzoate and benzyl alcohol to enhance the antimicrobial activity at pH 6.5, a common pH for skin lotions.
(§4) In FIG. 21 and FIG. 22, use of 3-phenyl propanol in the skin lotion set forth in Table 1 above was evaluated according to methods described in the Challenge Testing Methodology section using the microbes identified in Example 1. In this example, 3-phenyl propanol was added to the model skin lotion with sodium benzoate at 0.5 wt. % to enhance the antimicrobial activity at pH 6.5. In these examples, 0.5 wt. % of 3-phenyl propanol in addition to 0.5 wt. % sodium benzoate was required to pass the EP 2 day and 14-day criteria.
as §4, with “23” for “21”, “24,” for “22,”, “section above,” for “section”, “benzyl alcohol” for “sodium benzoate”, “8.0.” for “6.5.”
Use of sodium benzoate and benzyl alcohol at pH 6.5 in the skin lotion set forth in Table 1 above was evaluated according to methods described in paragraphs the Challenge Testing Methodology section above, using the microbes identified in Example 1. Again, in this case, only 2-day and 14-day time points were measured.

[3] = system: A. brasiliensis, C. albicans, E. coli, P. aeruginosa, S. aureus; assay: Microbe challenge testing (USP 51 / EP) in tryptic soy broth growth media; conditions: for effectiveness against microbe strains compared to no antimicrobial: 0.5 wt. %; for concentration achieving passing efficacy according to EP criteria / concentration achieving passing efficacy according to USP-51 criteria / efficacy versus bacteria, yeast and mold: tryptic soy broth; for efficacy versus bacteria, yeast and mold: 30 minutes to 28 days
Text: as §1, §2, §3
As such, it is an exceptional test medium and surrogate for evaluating antimicrobial efficacy, particularly for water-based or aqueous applications, although its value is not limited as such.
Product use applications involve a variety of pH conditions. […] In addition, antimicrobial compositions were added in amounts reflecting the wt. % used in an end use product, based on the total weight of all of the components of the end use product.
The efficacy of 3-phenyl propanol in tryptic soy broth growth media at pH 6.5 versus a number of microbes was evaluated according to methods described in the Challenge Testing Methodology section, above.
The efficacy of 3-phenyl propanol in tryptic soy broth growth media at pH 8.0 versus a number of microbes was evaluated according to methods described in the Challenge Testing Methodology section above.

## CC(CO)Cc1ccccc1 (stereo not drawn) [2-methyl-3-phenyl propanol]
[1]; 0.5 wt. %
  antimicrobial effectiveness over time: unexpected antimicrobial effectiveness

## OCCCc1ccccc1 [3-phenyl propanol]
[2]; skin lotion pH 6.5 with 0.25 wt. % sodium benzoate and 0.25 wt. % benzyl alcohol
  addition of 3-phenyl propanol meeting the two-day criteria of the European Pharmacopeia: 0.35 wt. %
[2]; skin lotion pH 6.5 with 0.25 wt. % sodium benzoate and 0.25 wt. % benzyl alcohol, after 14 days
  effect of small concentrations on performance against E. coli and S. aureus versus control (0 wt. %): significantly decreased performance
[2]; skin lotion pH 6.5 with 0.25 wt. % sodium benzoate and 0.25 wt. % benzyl alcohol, bacteria, mold and yeast
  loading of 3-phenyl propanol achieving the required 14-day efficacy under European Pharmacopeia criteria: approximately 0.35 wt. %
[2]; skin lotion pH 6.5 with 0.5 wt. % sodium benzoate
  3-phenyl propanol required to pass the EP 2 day and 14-day criteria: 0.5 wt. %
[2]; skin lotion pH 8.0 with 0.5 wt. % benzyl alcohol
  3-phenyl propanol required to pass the EP 2 day and 14-day criteria: 0.5 wt. %
[3]; pH 3, tryptic soy broth, up to 28 days
  effectiveness against microbe strains compared to no antimicrobial: demonstrated the effectiveness
[3]; pH 10, tryptic soy broth
  effectiveness against microbe strains compared to no antimicrobial: demonstrated the effectiveness
[3]; pH 6.5
  concentration achieving passing efficacy according to EP criteria: 1 wt. %
  concentration achieving passing efficacy according to USP-51 criteria: 0.5 wt. %
[3]; pH 6.5, various concentrations
  efficacy versus bacteria, yeast and mold: efficacious versus bacteria, yeast and mold
[3]; pH 8.0
  concentration achieving passing efficacy according to EP criteria: 1 wt. %
  concentration achieving passing efficacy according to USP-51 criteria: 0.25 wt. %
[3]; pH 8.0, various concentrations
  efficacy versus bacteria, yeast and mold: efficacious versus bacteria, yeast and mold

## OCc1ccccc1 [benzyl alcohol, reference compound]
[1]; 2.5 wt. %
  antimicrobial effectiveness over time: unexpected antimicrobial effectiveness
